The values that follow come from PMC12009420, “Dynamically chiral phosphonic acid-type metallo-β-lactamase inhibitors” (Communications Chemistry, 2025).

Like-named read-outs stand apart in the source and are kept apart here.

One data set concerns the target VIM-2 (Escherichia coli, UniProt Q5U7L7). Briefly: Enzymatic metallo-β-lactamase assay on purified VIM-2. It counts as biochemical. The method, then:
(§1) A few inhibitors were tested up to 1600 μM to ensure nearly complete inhibition. Solutions of 100 μL consisting of buffer, purified enzyme (1 nM for GIM-1 and VIM-2, 5 nM for NDM-1), inhibitor and reporter substrate nitrocefin (15 μM for VIM-2, 2 μM for GIM-1) or imipenem (30 μM for NDM-1) were incubated in triplicates on a 96 well plate for 5 min at 25 °C. Buffer solution consisted of 50 mM HEPES pH 7.2, 50 μM ZnSO4 and 0.4 mg/ml bovine serum albumine. Inhibitors were dissolved in DMSO but diluted to assure <2% DMSO in measured assay. Absorbance was measured at 482 nm (nitrocefin) and 300 nm (imipenem) on a SpectraMax M4 spectrophotometer. The initial velocity at each inhibitor concentration was analyzed in GraphPad Prism v9.3.1 and fitted to dose-response curves by non-linear regression (log [inhibitor] vs response) used to calculate IC50 (Supplementary Tables S2–5).

Data set [1] in a line: Long term stability in buffer with 2.5% DMSO (LC-MS). It counts as physicochemical. The settings on record: 20 mM KPO4, 0.1 mM ZnCl2, pH 7.0 + 2.5% DMSO; LC-MS 254 nm. An excerpt: Reagents, reactants, solvents and drying agents for synthesis, work-up and purification were purchased from commercial vendors (Sigma-Aldrich, VWR, Merck, Fluorochem, Thermo Fisher Scientific, Solveco), and if not stated otherwise they were used without further purification. Reactions and long term stability of the final compounds in buffer were monitored using LC-MS (Agilent 1260 Infinity II) equipped with an ESI-Q detector (Infinitylab LC-MSD) using Agilent InfinityLab Poroshell 120 C18 columns (2.7 μm, ϕ 2.1 mm L 50 mm or 2.7 μm, ϕ 4.6 mm L 50 mm). The intermediates were purified using VWR silica gel 60 (40–63 μm) with a Biotage Isolera One flash column chromatography instrument. The final products were purified with preparative RP-HPLC (VWR LaPrep P110) with single wavelength detection (254 nm), using a Kinetex C8 column (5 μm, 100 Å, ϕ 21.2 mm L 250 mm) and gradients of CH3CN/H2O + 0.1% formic acid as the mobile phase at a 10 mL/min flow rate. Analytical HPLC data were acquired on a VWR LaChrome ELITE system using an ACE3 C8 (3 μm, 300 Å, ϕ 3.0 mm L 100 mm) or a Kinetex C18 columns (5 μm, 100 Å, ϕ 3.0 mm L 150 mm). NMR spectra were recorded on a Varian Agilent MR400-DD2 400 MHz spectrometer equipped with a OneNMR probe, Bruker Avance Neo 500 MHz spectrometer equipped with a cryogenic TXO probe, or a Bruker Avance Neo 600 MHz spectrometer equipped with a TCI cryogenic probe. The chemical shifts are reported using the residual solvent signal as an indirect reference to TMS.
4. Long term stability of the final compounds in buffer with 2.5% DMSO
The long term stability of the final compounds in buffer (20 mM KPO4, 0.1 mM ZnCl2, pH 7.0 + 2.5% DMSO) were monitored using LC-MS (Agilent 1260 Infinity II) equipped with an ESI-Q detector (Infinitylab LC-MSD) using Agilent InfinityLab Poroshell 120 C18 column (2.7 μm, ϕ 4.6 mm L 50 mm) at 254 nm with a 7 min long gradient method (5% to 95% CH3CN) of CH3CN/H2O + 0.1% formic acid as the mobile phase at a 1.0 mL/min flow rate. The samples were measured right after dissolving them in buffer, and after 1 month of keeping the same samples dissolved in the same buffer. The main peaks (> 95%) and impurities with > 1% are […]
Figure S14. Compound 5a right after dissolving it in buffer.
Figure S15. Compound 5a kept in buffer for 1 month. […]

The target of a further data set is NDM-1 (Klebsiella pneumoniae, UniProt C7C422). Briefly: Enzymatic metallo-β-lactamase assay on purified NDM-1. It counts as biochemical. The method, then: as §1
A short description of another data set: MTT cytotoxicity assay. It counts as cell-based. The settings on record: human, HepG2 cells. The method, then:
Cytotoxic activity of the compounds was measured through the MTT colorimetric assay as previously described[60] using the Colorimetric (MTT) Kit for Cell Survival and Proliferation (Merck/Millipore; Darmstadt, Germany). HepG2 cells (human hepatocellular carcinoma cell line) were kept in penicillin/streptomycin-free medium overnight and then they were treated with the compounds for 24 h. Subsequently, the MTT reagent was added to the cells and after 3 h of incubation, MTT-derived formazan crystals were solubilized in acidified isopropanol (0.1 mL isopropanol with 0.04 N HCl). Absorbance was measured with multiscan spectrophotometer (Thermo Fisher Scientific) at 530 nm test and 630 nm reference wavelengths. Cell viability was expressed as the percentage of viable, untreated cells. CC50 values were determined with GraphPad Prism software (v9.3.1) and adjusted to dose-response curves by non-linear regression (Supplementary Table S7).
8. Cytotoxocity against HepG2 cells
Table S7. CC50 values and viability curves of metallo-β-lactamase inhibitors tested on HepG2 […]
cells. […]
range. Data are shown as % via bility values ± SEM (n=4). Calculations were done using […]
Inhibitors CC50 (μM) HepG2 […]
A general note: Formazan colour is commonly taken as a measure of viable cells.

The target in a further data set is GIM-1 (Pseudomonas aeruginosa, UniProt Q704V1). Briefly: Enzymatic metallo-β-lactamase assay on purified GIM-1. It counts as biochemical. As for the experimental part: as §1
In the next data set the target is T1, 15N-labeled NDM-1 (Klebsiella pneumoniae, UniProt C7C422).
T1 construct: made in house
Nature of the data set: 1H,15N-HSQC titration of NDM-1. The settings on record: 10 equivalents of compound, 600 MHz, pH 7.0, 25 °C. It counts as binding. As for the experimental part: The ^1H, ^15N-HSQC spectra for the titration experiments were recorded on a Bruker Avance Neo 600 MHz spectrometer equipped with a 5 mm TCI cryogenic probe at 25 °C. The U-[^15N]-labeled VIM-2 was prepared in a buffer of 20 mM KPO4, 0.1 mM ZnCl2, at pH 7.0, containing 85% H2O/15% D2O at a concentration of 0.25 mM. The U-[^15N]-labeled NDM-1 was used in a buffer of 20 mM HEPES, 0.1 mM ZnCl2, at pH 7.0, containing 85% H2O/15% D2O at a concentration of 0.25 mM. The ligands 5d, 5g, 5i, 5j (for VIM-2 titrations) and 5 f (for NDM-1 titration) were dissolved in the same buffer as the corresponding enzymes. Spectra were recorded using solvent suppression, 1024 points in f1, 16 transients, 512 increments in f2 and a relaxation delay of 0.2 s. The titrations were carried out with 0, 0.25, 0.50, 1.00, 1.50, 2.25, 3.00, 4.00, 5.00, 7.00, 10.0 equivalents of the inhibitors. […]
Chemical shift perturbation values (CSP, ΔδNH) were calculated as the weighted average of
the chemical shift changes in f1 (ΔδN) and f2 (ΔδH) dimensions using the following equation 8:
∆δ = √∆δ 2 + ( N ); R = 6.5 […]

NDM-1, sequence (C7C422 29-270, looked up, species assumed): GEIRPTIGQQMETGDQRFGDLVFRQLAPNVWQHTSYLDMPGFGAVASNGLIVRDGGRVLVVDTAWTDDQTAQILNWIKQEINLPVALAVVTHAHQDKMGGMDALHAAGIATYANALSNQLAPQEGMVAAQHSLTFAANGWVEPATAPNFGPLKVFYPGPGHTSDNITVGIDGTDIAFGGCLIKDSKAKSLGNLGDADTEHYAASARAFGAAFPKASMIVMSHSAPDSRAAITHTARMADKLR
GIM-1, sequence (Q704V1 entry or part of it): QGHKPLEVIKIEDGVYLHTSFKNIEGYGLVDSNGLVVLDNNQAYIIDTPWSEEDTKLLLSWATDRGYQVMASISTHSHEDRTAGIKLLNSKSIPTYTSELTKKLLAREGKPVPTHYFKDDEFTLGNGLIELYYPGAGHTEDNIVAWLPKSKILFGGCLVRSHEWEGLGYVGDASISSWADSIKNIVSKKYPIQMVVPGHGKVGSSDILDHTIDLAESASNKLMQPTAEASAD
T1 sequence (C7C422 29-270, looked up): as the sequence (C7C422 29-270, looked up, species assumed) above

Turning to `O=C(NC(c1ccccc1O)P(=O)(O)O)c1csc2c1CCCC2` (stereo not shown) [5f], the Ki (commonly the equilibrium dissociation constant of an inhibitor or competing ligand from its target) on VIM-2 (approximated from Dixon plots (1/v vs [I]) at one constant substrate concentration, ± SE, read-out: Estimated inhibition constant Ki VIM-2) is 40 ± 2 µM; on NDM-1 (approximated from Dixon plots (1/v vs [I]) at one constant substrate concentration, ± SE, read-out: Estimated inhibition constant Ki NDM-1), 128 ± 58 µM. Moreover, the “logIC50 VIM-2” value at VIM-2 (log of IC50, ± SEM of logIC50) amounted to 1.68 ± 0.05 μM. The IC50 (usually the concentration that gives 50% inhibition) against VIM-2 (purified enzyme 1 nM, nitrocefin 15 μM, pH 7.2, 25 °C) worked out at 48 µM; on NDM-1 (purified enzyme 5 nM, imipenem 30 μM, pH 7.2, 25 °C), 30 µM; against GIM-1 (purified enzyme 1 nM, nitrocefin 2 μM, pH 7.2, 25 °C), 52 µM. Further, the “main peak Area% kept in buffer for 1 month” value in data set [1] was 95.90%. In data set [1], the “main peak Area% right after dissolving in buffer” value is on record as 95.67%. On NDM-1 (log of IC50, ± SEM of logIC50), the “logIC50 NDM-1” value was 1.48 ± 0.03 log10(IC50/μM). The CC50 (as a rule, the concentration that lowers cell viability or growth by half) at 24 h stood at 4800 µM in “MTT cytotoxicity assay” (HepG2, MTT, read-out: CC50 (in viability curve)) and 4800 µM in “MTT cytotoxicity assay” (MTT, 0.0025 mM - 1mM concentration range, read-out: Cytotoxicity CC50 HepG2). Further, the “logIC50 GIM-1” value on GIM-1 (log of IC50, ± SEM of logIC50) is recorded as 1.71 ± 0.10 μM. Also, at 15N-labeled NDM-1, the “Mean chemical shift perturbation, NDM-1” value was determined as 0.05 ppm.
